Among the data in patent US9273058B2 (BRISTOL-MYERS SQUIBB COMPANY, priority 2013, dated 2016) are IC50 values, retold here.

The target in one assay is CK1ε (Homo sapiens, UniProt P49674). As to the kind of experiment: CK1ε kinase assay (Caliper LabChip electrophoretic separation of fluoresceinated peptide substrate and product). Format: biochemical. The note with it: 200 pM CK1ε, 50 μM ATP, 1.5 μM peptide, 22 hours at room temperature. The method in brief:
(§1)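 Kinase reactions ran 22 h at room temperature, were stopped with EDTA, and phosphorylated product was separated electrophoretically from unphosphorylated fluoresceinated peptide. Compounds were tested at eleven concentrations from 10 mM DMSO stocks. IC50 by non-linear regression.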

The target in another assay is CK1δ (Homo sapiens, UniProt P48730). Description: CK1δ kinase assay (Caliper LabChip electrophoretic separation of fluoresceinated peptide substrate and product). Format: biochemical. The note with it: 200 pM CK1δ, 50 μM ATP, 1.5 μM peptide, 22 hours at room temperature. The method in brief: as §1
CK1δ, sequence (P48730 whole entry): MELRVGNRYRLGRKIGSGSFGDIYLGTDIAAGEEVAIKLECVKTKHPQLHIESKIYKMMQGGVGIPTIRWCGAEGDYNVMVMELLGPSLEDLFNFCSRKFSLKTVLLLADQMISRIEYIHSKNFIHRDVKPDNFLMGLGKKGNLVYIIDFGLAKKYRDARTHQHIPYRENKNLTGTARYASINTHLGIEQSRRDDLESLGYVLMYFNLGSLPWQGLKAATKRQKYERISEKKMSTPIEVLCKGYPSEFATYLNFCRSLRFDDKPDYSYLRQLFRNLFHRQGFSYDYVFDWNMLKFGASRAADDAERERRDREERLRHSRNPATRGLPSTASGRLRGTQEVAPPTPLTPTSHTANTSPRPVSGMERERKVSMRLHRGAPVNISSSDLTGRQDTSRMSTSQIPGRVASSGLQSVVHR

The structures appear in SMILES notation. Like-named read-outs stand apart in the source and are kept apart here.

CK1ε, sequence (P49674 whole entry): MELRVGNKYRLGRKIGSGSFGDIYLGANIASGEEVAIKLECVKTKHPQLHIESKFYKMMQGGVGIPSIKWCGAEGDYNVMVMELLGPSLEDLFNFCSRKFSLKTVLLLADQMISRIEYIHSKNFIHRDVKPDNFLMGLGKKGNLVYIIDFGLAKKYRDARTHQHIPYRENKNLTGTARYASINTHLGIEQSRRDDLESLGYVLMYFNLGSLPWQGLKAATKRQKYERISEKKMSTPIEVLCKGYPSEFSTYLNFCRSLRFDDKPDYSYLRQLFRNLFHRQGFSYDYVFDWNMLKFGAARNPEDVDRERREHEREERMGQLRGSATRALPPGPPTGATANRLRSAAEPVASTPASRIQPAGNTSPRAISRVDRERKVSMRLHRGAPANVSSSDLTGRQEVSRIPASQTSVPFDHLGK

`CC(C)(C)NC(=O)N1CCn2nc(-c3ccc(C#N)cc3)c(C(N)=O)c2C1` [Compound 127, N^5-(tert-Butyl)-2-(4-cyanophenyl)-6,7-dihydropyrazolo[1,5-a] pyrazine-3,5(4H)-dicarboxamide]: the IC50 is 444 nM on CK1ε (read-out: CK1ε), 100 to 2000 nM at CK1ε (read-out: CK1ε IC50 range), 357 nM at CK1δ (read-out: CK1δ) and 100 to 2000 nM at CK1δ (read-out: CK1δ IC50 range).
Regarding `CC(C)(NC(=O)N1CCn2nc(-c3ccc(F)c(Cl)c3)c(C(N)=O)c2C1)C1CCC(F)(F)CC1` [Compound 232, 2-(3-Chloro-4-fluorophenyl)-N^5-(2-(4,4-difluorocyclohexyl)propan-2-yl)-6,7-dihydropyrazolo[1,5-a]pyrazine-3,5(4H)-dicarboxamide], the IC50 on CK1ε (read-out: CK1ε IC50 range) and on CK1δ (read-out: CK1δ IC50 range) was 0.01 to 10 nM throughout.
On to `NC(=O)c1c(-c2cccc(Cl)c2)nn2c1CN(C(=O)NC1CC(F)(F)C1)CC2` [Compound 292, 2-(3-Chlorophenyl)-N^5-(3,3-difluorocyclobutyl)-6,7-dihydropyrazolo[1,5-a]pyrazine-3,5(4H)-dicarboxamide], for which the IC50 on CK1ε (read-out: CK1ε IC50 range) and at CK1δ (read-out: CK1δ IC50 range) was 10 to 100 nM throughout.
`NC(=O)c1c(-c2ccc(F)c(Cl)c2)nn2c1CN(C(=O)NCC1CC(F)(F)C1)CC2` [Compound 193, 2-(3-Chloro-4-fluorophenyl)-N^5-((3,3-difluorocyclobutyl)methyl)-6,7-dihydropyrazolo[1,5-a] pyrazine-3,5(4H)-dicarboxamide]: the IC50 at CK1ε (read-out: CK1ε IC50 range) and on CK1δ (read-out: CK1δ IC50 range) was 0.01 to 10 nM each time.
Take `NC(=O)c1c(-c2cccc(F)c2)nn2c1CN(C(=O)NC1CCC1)CC2` [Compound 8, N^5-Cyclobutyl-2-(3-fluorophenyl)-6,7-dihydropyrazolo[1,5-a]pyrazine-3,5(4H)-dicarboxamide]: the IC50 at CK1ε (read-out: CK1ε IC50 range) and at CK1δ (read-out: CK1δ IC50 range) was 10 to 100 nM throughout.
In the case of `NC(=O)c1c(-c2cccc(F)c2)nn2c1CN(C(=O)NCCC(F)(F)F)CC2` [Compound 14, 2-(3-Fluorophenyl)-N^5-(3,3,3-trifluoropropyl)-6,7-dihydropyrazolo[1,5-a]pyrazine-3,5(4H)-dicarboxamide], the IC50 at CK1ε (read-out: CK1ε IC50 range) and on CK1δ (read-out: CK1δ IC50 range) was 10 to 100 nM in each case.
With `NC(=O)c1c(-c2ccc(F)c(Cl)c2)nn2c1CN(C(=O)NC13CCC(c4ccc(F)cc4)(CC1)CC3)CC2` [Compound A52, 2-(3-Chloro-4-fluorophenyl)-N^5-(4-(4-fluorophenyl)bicyclo[2.2.2]octan-1-yl)-6,7-dihydropyrazolo[1,5-a]pyrazine-3,5(4H)-dicarboxamide], the IC50 on CK1ε (read-out: CK1ε IC50 range) and at CK1δ (read-out: CK1δ IC50 range) was 0.01 to 10 nM in each case.
With `CC(C)(C)NC(=O)N1CCn2nc(-c3ccccc3C(N)=O)c(C(N)=O)c2C1` [Compound 131, N^5-(tert-Butyl)-2-(2-carbamoylphenyl)-6,7-dihydropyrazolo[1,5-a] pyrazine-3,5(4H)-dicarboxamide], the IC50 on CK1ε (read-out: CK1ε IC50 range) and at CK1δ (read-out: CK1δ IC50 range) was 100 to 2000 nM each time.
Take `NC(=O)c1c(-c2cccc(F)c2)nn2c1CN(C(=O)Nc1cccc(F)c1F)CC2` [Compound 28, N^5-(2,3-Difluorophenyl)-2-(3-fluorophenyl)-6,7-dihydropyrazolo[1,5-a]pyrazine-3,5(4H)-dicarboxamide]: the IC50 on CK1ε (read-out: CK1ε IC50 range) and at CK1δ (read-out: CK1δ IC50 range) was 10 to 100 nM in each case.
Take `NC(=O)c1c(-c2ccc(F)c(Cl)c2)nn2c1CN(C(=O)NC13CCC(CF)(CC1)CC3)CC2` [Compound A56, 2-(3-Chloro-4-fluorophenyl)-N^5-(4-(fluoromethyl)bicyclo[2.2.2]octan-1-yl)-6,7-dihydropyrazolo[1,5-a]pyrazine-3,5(4H)-dicarboxamide]: the IC50 at CK1ε (read-out: CK1ε IC50 range) and at CK1δ (read-out: CK1δ IC50 range) was 0.01 to 10 nM in each case.
In the case of `CC1Cn2nc(-c3ccc(F)c(Cl)c3)c(C(N)=O)c2CN1C(=O)NC1CC(F)(F)C1` (single isomer, unassigned) [Compound 342, 2-(3-Chloro-4-fluorophenyl)-N^5-(3,3-difluorocyclobutyl)-6-methyl-6,7-dihydropyrazolo[1,5-a]pyrazine-3,5(4H)-dicarboxamide], the IC50 at CK1ε (read-out: CK1ε IC50 range) and at CK1δ (read-out: CK1δ IC50 range) was 10 to 100 nM throughout.
Turning to `NC(=O)c1c(-c2ccc(F)c(Cl)c2)nn2c1CN(C(=O)NC13CCC(F)(CC1)C3)CC2` [Compound A137, 2-(3-Chloro-4-fluorophenyl)-N^5-(4-fluorobicyclo[2.2.1]heptan-1-yl)-6,7-dihydropyrazolo[1,5-a]pyrazine-3,5(4H)-dicarboxamide], the IC50 on CK1ε (read-out: CK1ε IC50 range) and at CK1δ (read-out: CK1δ IC50 range) was 0.01 to 10 nM each time.
As for `CC(C)(C)NC(=O)N1CCn2nc(-c3cccc4cnccc34)c(C(N)=O)c2C1` [Compound 134, N^5-(tert-Butyl)-2-(isoquinolin-5-yl)-6,7-dihydropyrazolo[1,5-a] pyrazine-3,5(4H)-dicarboxamide], the IC50 on CK1ε (read-out: CK1ε IC50 range) and at CK1δ (read-out: CK1δ IC50 range) was 100 to 2000 nM each time.
With `CC(C)(C)NC(=O)N1CCn2nc(-c3ccccc3F)c(C(N)=O)c2C1` [Compound 107, N^5-(tert-Butyl)-2-(2-fluorophenyl)-6,7-dihydropyrazolo[1,5-a] pyrazine-3,5(4H)-dicarboxamide], the IC50 was 400 nM on CK1ε (read-out: CK1ε), 100 to 2000 nM on CK1ε (read-out: CK1ε IC50 range), 105 nM on CK1δ (read-out: CK1δ) and 10 to 100 nM at CK1δ (read-out: CK1δ IC50 range).
Turning to `CC(C)(C)NC(=O)N1CCn2nc(-c3cccc(-c4ccccc4)c3)c(C(N)=O)c2C1` [Compound 141, 2-([1,1′-Biphenyl]-3-yl)-N^5-(tert-butyl)-6,7-dihydropyrazolo[1,5-a] pyrazine-3,5(4H)-dicarboxamide], the IC50 at CK1ε (read-out: CK1ε IC50 range) and at CK1δ (read-out: CK1δ IC50 range) was 100 to 2000 nM each time.
Turning to `CC(C)(C)NC(=O)N1CCn2nc(-c3cc(F)cc(C#N)c3)c(C(N)=O)c2C1` [Compound 115, N^5-(tert-Butyl)-2-(3-cyano-5-fluorophenyl)-6,7-dihydropyrazolo[1,5-a] pyrazine-3,5(4H)-dicarboxamide], the figures for the IC50 on CK1ε (read-out: CK1ε IC50 range) and at CK1δ (read-out: CK1δ IC50 range) were 100 to 2000 nM and 10 to 100 nM, respectively.
For `NC(=O)c1c(-c2cccc(Cl)c2)nn2c1CN(C(=O)NC1CC3(C1)CC3(F)F)CC2` (single isomer, unassigned) [Compound 322, 2-(3-Chlorophenyl)-N^5-(1,1-difluorospiro[2.3]hexan-5-yl)-6,7-dihydropyrazolo[1,5-a]pyrazine-3,5(4H)-dicarboxamide] the same measures were 0.01 to 10 nM and 0.01 to 10 nM.
Regarding `CC1(C)CC(NC(=O)N2CCn3nc(-c4ccc(Cl)c(Cl)c4)c(C(N)=O)c3C2)C1` [Compound 287, 2-(3,4-Dichlorophenyl)-N^5-(3,3-dimethylcyclobutyl)-6,7-dihydropyrazolo[1,5-a] pyrazine-3,5(4H)-dicarboxamide], the IC50 on CK1ε (read-out: CK1ε IC50 range) and at CK1δ (read-out: CK1δ IC50 range) was 0.01 to 10 nM throughout.
With `NC(=O)c1c(-c2ccc(F)c(Cl)c2)nn2c1CN(C(=O)NC1CCC(F)(F)CC1)C[C@H]2C(F)F` [Compound A13, (S)-2-(3-Chloro-4-fluorophenyl)-N^5-(4,4-difluorocyclohexyl)-7-(difluoromethyl)-6,7-dihydropyrazolo[1,5-a] pyrazine-3,5(4H)-dicarboxamide], the IC50 at CK1ε (read-out: CK1ε IC50 range) and at CK1δ (read-out: CK1δ IC50 range) was 0.01 to 10 nM throughout.
As to `NC(=O)c1c(-c2ccc(F)c(Cl)c2)nn2c1CN(C(=O)N[C@@H]1CC[C@H]1COC(F)F)CC2` [Compound 241, 2-(3-Chloro-4-fluorophenyl)-N^5-((1R,2R)-2-((difluoromethoxy)methyl)cyclobutyl)-6,7-dihydropyrazolo[1,5-a]pyrazine-3,5(4H)-dicarboxamide], the IC50 at CK1ε (read-out: CK1ε IC50 range) and at CK1δ (read-out: CK1δ IC50 range) was 0.01 to 10 nM in each case.
Regarding `CC(C)(C)NC(=O)N1Cc2c(C(N)=O)c(-c3ccc(Cl)c(Cl)c3)nn2C(C(F)F)C1` (centres unmarked) [Compound A32, N^5-(tert-Butyl)-2-(3,4-dichlorophenyl)-7-(difluoromethyl)-6,7-dihydropyrazolo[1,5-a]pyrazine-3,5(4H)-dicarboxamide], the IC50 on CK1ε (read-out: CK1ε IC50 range) and at CK1δ (read-out: CK1δ IC50 range) was 0.01 to 10 nM in each case.
Take `CC(C)(C)NC(=O)N1Cc2c(C(N)=O)c(-c3ccc(F)c(Cl)c3)nn2C(CN2CCOCC2)C1` (centres unmarked) [Compound A15, N^5-(tert-Butyl)-2-(3-chloro-4-fluorophenyl)-7-(morpholinomethyl)-6,7-dihydropyrazolo[1,5-a]pyrazine-3,5(4H)-dicarboxamide]: the IC50 at CK1ε (read-out: CK1ε IC50 range) and on CK1δ (read-out: CK1δ IC50 range) was 0.01 to 10 nM in each case.
On to `NC(=O)c1c(-c2ccc(Cl)c(Cl)c2)nn2c1CN(C(=O)NCC1CC(F)(F)C1)CC2` [Compound 205, 2-(3,4-Dichlorophenyl)-N^5-((3,3-difluorocyclobutyl)methyl)-6,7-dihydropyrazolo[1,5-a] pyrazine-3,5(4H)-dicarboxamide], for which the IC50 at CK1ε (read-out: CK1ε IC50 range) and on CK1δ (read-out: CK1δ IC50 range) was 0.01 to 10 nM in each case.
In the case of `CC(C)NC(=O)C(C)(C)NC(=O)N1CCn2nc(-c3ccc(F)c(Cl)c3)c(C(N)=O)c2C1` [Compound 216, 2-(3-Chloro-4-fluorophenyl)-N^5-(1-(isopropylamino)-2-methyl-1-oxopropan-2-yl)-6,7-dihydropyrazolo[1,5-a] pyrazine-3,5(4H)-dicarboxamide], the IC50 was in the range of 100 to 2000 nM on CK1ε (read-out: CK1ε IC50 range) and 10 to 100 nM at CK1δ (read-out: CK1δ IC50 range).
For `NC(=O)c1c(-c2ccc(F)c(Cl)c2)nn2c1CN(C(=O)NC13CCC(CF)(CC1)C3)CC2` [Compound A138, 2-(3-Chloro-4-fluorophenyl)-N^5-(4-(fluoromethyl)bicyclo[2.2.1]heptan-1-yl)-6,7-dihydropyrazolo[1,5-a]pyrazine-3,5(4H)-dicarboxamide] the same measures were 0.01 to 10 nM and 0.01 to 10 nM.
On to `CC1(C)CC(NC(=O)N2CCn3nc(-c4cccc(Cl)c4)c(C(N)=O)c3C2)C1` [Compound 286], for which the IC50 on CK1ε (read-out: CK1ε IC50 range) and on CK1δ (read-out: CK1δ IC50 range) was 0.01 to 10 nM in each case.
